Reference: the supplement of paper PMC10307832

Experiments:
Test in all cases: relative viability (nuclei count vs DMSO), 5 days (fraction); higher = more cells survive
[1] = compound: CC1=C(C=CC(=C1)[N+](=O)[O-])NS(=O)(=O)C2=C(C=CC(=C2)Cl)Cl [FH535] + CS(=O)(=O)N1CCN(Cc2cc3nc(-c4cccc5[nH]ncc45)nc(N4CCOCC4)c3s2)CC1 [Pictilisib] (partner 1 µM)
How it was run: (§1)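 Lung cancer cell lines were seeded in 1536-well plates and dosed by pin tool the next day, with either a single drug or a fixed anchor-drug dose combined with five library-drug doses (not always all listed) spaced in √10 steps. Five days later, one step fixed the cells and stained their nuclei (final 0.05% Triton X-100, 1% formaldehyde, 1 ug/ml Hoechst), and nuclei were counted on 4× images. Relative viability is the nuclei count in treated wells divided by the count in vehicle wells, and each value is the median of duplicate plates.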

[2] = compound: CC1=C(C=CC(=C1)[N+](=O)[O-])NS(=O)(=O)C2=C(C=CC(=C2)Cl)Cl [FH535] + CS(=O)(=O)CCNCc1ccc(-c2ccc3ncnc(Nc4ccc(OCc5cccc(F)c5)c(Cl)c4)c3c2)o1 [Lapatinib] (partner 2 µM)
How it was run: as §1

[3] = compound: CC1=C(C=CC(=C1)[N+](=O)[O-])NS(=O)(=O)C2=C(C=CC(=C2)Cl)Cl [FH535] + COc1cc2c(Oc3ccc(NC(=O)C4(C(=O)Nc5ccc(F)cc5)CC4)cc3F)ccnc2cc1OCCCN1CCOCC1 [Foretinib] (partner 0.25 µM)
How it was run: as §1

[4] = compound: CC1=C(C=CC(=C1)[N+](=O)[O-])NS(=O)(=O)C2=C(C=CC(=C2)Cl)Cl [FH535] + CC(C)C[C@H](NC(=O)[C@H](Cc1ccccc1)NC(=O)c1cnccn1)B(O)O [Bortezomib] (partner 0.002 µM)
How it was run: as §1

[5] = compound: CC1=C(C=CC(=C1)[N+](=O)[O-])NS(=O)(=O)C2=C(C=CC(=C2)Cl)Cl [FH535] + C[C@]1(O)C[C@@H](c2nc(-c3ccc4ccc(-c5ccccc5)nc4c3)c3c(N)nccn32)C1 [Linsitinib] (partner 1 µM)
How it was run: as §1

[6] = compound: CC1=C(C=CC(=C1)[N+](=O)[O-])NS(=O)(=O)C2=C(C=CC(=C2)Cl)Cl [FH535] + O=C(c1cc(Cc2n[nH]c(=O)c3ccccc23)ccc1F)N1CCN(C(=O)C2CC2)CC1 [Olaparib] (partner 8 µM)
How it was run: as §1

[7] = compound: CC1=C(C=CC(=C1)[N+](=O)[O-])NS(=O)(=O)C2=C(C=CC(=C2)Cl)Cl [FH535] + CC1(C)CCC(c2ccc(Cl)cc2)=C(CN2CCN(c3ccc(C(=O)NS(=O)(=O)c4ccc(N[C@H](CCN5CCOCC5)CSc5ccccc5)c(S(=O)(=O)C(F)(F)F)c4)cc3)CC2)C1 [Navitoclax] (partner 0.5 µM)
How it was run: as §1

[8] = compound: CC1=C(C=CC(=C1)[N+](=O)[O-])NS(=O)(=O)C2=C(C=CC(=C2)Cl)Cl [FH535] + Cc1nc(NC(=O)N2CCC[C@H]2C(N)=O)sc1-c1ccnc(C(C)(C)C(F)(F)F)c1 [Alpelisib] (partner 2 µM)
How it was run: as §1

[9] = compound: CC1=C(C=CC(=C1)[N+](=O)[O-])NS(=O)(=O)C2=C(C=CC(=C2)Cl)Cl [FH535] + C[C@@H](Oc1cc(-c2cnn(C3CCNCC3)c2)cnc1N)c1c(Cl)ccc(F)c1Cl [Crizotinib] (partner 1 µM)
How it was run: as §1

[10] = compound: CC1=C(C=CC(=C1)[N+](=O)[O-])NS(=O)(=O)C2=C(C=CC(=C2)Cl)Cl [FH535]
How it was run: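 Nuclei counted with MetaXpress define viability as the ratio of treated to vehicle wells, given as a median across plates. The lung cancer cell lines were in 1536-well plates, pinned with five √10-spaced library-drug doses and imaged at 4× after 5 days and Hoechst staining. Plates passed with control CV below 25% and at least one doubling.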

For EBC-1, the relative viability ([1]; first compound 0.04 µM) was 0.44, the relative viability ([1]; first compound 0.1265 µM) was 0.289 and the relative viability ([1]; first compound 0.4 µM) was 0.402. The relative viability ([1]; first compound 1.265 µM) was 0.383, the relative viability ([2]; first compound 0.04 µM) was 0.237 and the relative viability ([2]; first compound 0.1265 µM) was 0.209. For the same cell line, the relative viability ([2]; first compound 0.4 µM) was 0.196, the relative viability ([2]; first compound 1.265 µM) was 0.151 and the relative viability ([3]; first compound 0.04 µM) was 0.114. It also gave a relative viability ([3]; first compound 0.4 µM) of 0.0911, a relative viability ([3]; first compound 1.265 µM) of 0.101 and a relative viability ([4]; first compound 0.04 µM) of 0.622. It also gave a relative viability ([4]; first compound 0.1265 µM) of 0.638, a relative viability ([4]; first compound 0.4 µM) of 0.585 and a relative viability ([4]; first compound 1.265 µM) of 0.449. It also gave a relative viability ([5]; first compound 0.04 µM) of 0.854, a relative viability ([5]; first compound 0.1265 µM) of 0.899 and a relative viability ([5]; first compound 0.4 µM) of 0.91. It also gave a relative viability ([5]; first compound 1.265 µM) of 0.646, a relative viability ([6]; first compound 0.04 µM) of 0.675 and a relative viability ([6]; first compound 0.1265 µM) of 0.657. For the same cell line, the relative viability ([6]; first compound 0.4 µM) was 0.712, the relative viability ([6]; first compound 1.265 µM) was 0.566 and the relative viability ([7]; first compound 0.04 µM) was 0.364. The relative viability ([7]; first compound 0.1265 µM) was 0.391, the relative viability ([7]; first compound 0.4 µM) was 0.491 and the relative viability ([7]; first compound 1.265 µM) was 0.416. The relative viability ([8]; first compound 0.04 µM) was 0.737, the relative viability ([8]; first compound 0.1265 µM) was 0.82 and the relative viability ([8]; first compound 0.4 µM) was 0.868. It also gave a relative viability ([8]; first compound 1.265 µM) of 0.816, a relative viability ([9]; first compound 0.04 µM) of 0.178 and a relative viability ([9]; first compound 0.1265 µM) of 0.182. The relative viability ([9]; first compound 0.4 µM) was 0.192, the relative viability ([9]; first compound 1.265 µM) was 0.178 and the relative viability ([10]; 0.04 µM) was 0.924. It also gave a relative viability ([10]; 0.1265 µM) of 0.983, a relative viability ([10]; 0.4 µM) of 0.989 and a relative viability ([10]; 1.265 µM) of 0.815.
